Reference: the supplement of paper PMC10307832

Assays:
Experiment in all cases: relative viability (nuclei count vs DMSO), 5 days (fraction); higher = more cells survive
Veliparib + Bortezomib = compound: C[C@]1(c2nc3c(C(N)=O)cccc3[nH]2)CCCN1 [Veliparib] + CC(C)C[C@H](NC(=O)[C@H](Cc1ccccc1)NC(=O)c1cnccn1)B(O)O [Bortezomib] (partner 0.002 µM)
In short: (§1)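 Lung cancer cell lines were seeded in 1536-well plates and dosed by pin tool the next day, with either a single drug or a fixed anchor-drug dose combined with five library-drug doses (not always all listed) spaced in √10 steps. Five days later, one step fixed the cells and stained their nuclei (final 0.05% Triton X-100, 1% formaldehyde, 1 ug/ml Hoechst), and nuclei were counted on 4× images. Relative viability is the nuclei count in treated wells divided by the count in vehicle wells, and each value is the median of duplicate plates.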

Veliparib + Palbociclib = compound: C[C@]1(c2nc3c(C(N)=O)cccc3[nH]2)CCCN1 [Veliparib] + CC(=O)c1c(C)c2cnc(Nc3ccc(N4CCNCC4)cn3)nc2n(C2CCCC2)c1=O [Palbociclib] (partner 0.5 µM)
In short: as §1

Veliparib + AZD7762 = compound: C[C@]1(c2nc3c(C(N)=O)cccc3[nH]2)CCCN1 [Veliparib] + NC(=O)Nc1cc(-c2cccc(F)c2)sc1C(=O)N[C@H]1CCCNC1 [AZD7762] (partner 0.2 µM)
In short: as §1

[1] = compound: COC1=CC=C(C=C1)CN2C=CC3=C2C=C(C=C3)C(=O)NO + Cc1nc(NC(=O)N2CCC[C@H]2C(N)=O)sc1-c1ccnc(C(C)(C)C(F)(F)F)c1 [Alpelisib] (partner 2 µM)
In short: as §1

Row | Cell Line | relative viability (Veliparib + Bortezomib; first compound 0.02 µM) | relative viability (Veliparib + Bortezomib; first compound 0.06325 µM) | relative viability (Veliparib + Bortezomib; first compound 0.2 µM) | relative viability (Veliparib + Bortezomib; first compound 0.6325 µM) | relative viability (Veliparib + Bortezomib; first compound 2 µM) | relative viability (Veliparib + Palbociclib; first compound 0.02 µM) | relative viability (Veliparib + Palbociclib; first compound 0.06325 µM) | relative viability (Veliparib + Palbociclib; first compound 0.2 µM) | relative viability (Veliparib + Palbociclib; first compound 0.6325 µM) | relative viability (Veliparib + Palbociclib; first compound 2 µM) | relative viability (Veliparib + AZD7762; first compound 0.02 µM) | relative viability (Veliparib + AZD7762; first compound 0.06325 µM) | relative viability (Veliparib + AZD7762; first compound 0.2 µM) | relative viability (Veliparib + AZD7762; first compound 0.6325 µM) | relative viability (Veliparib + AZD7762; first compound 2 µM) | relative viability ([1]; first compound 0.08 µM) | relative viability ([1]; first compound 0.253 µM) | relative viability ([1]; first compound 0.8 µM) | relative viability ([1]; first compound 2.53 µM) | relative viability ([1]; first compound 8 µM)
1 | NCI-H1755 | 0.888 | 0.892 | 0.924 | 0.954 | 0.868 | 0.46 | 0.469 | 0.442 | 0.455 | 0.395 | 0.479 | 0.543 | 0.5 | 0.443 | 0.444 | 0.819 | 0.964 | 0.913 | 0.995 | 0.928
2 | LXF-289 | 0.997 | 0.975 | 1 | 0.959 | 1.02 | 0.577 | 0.574 | 0.554 | 0.601 | 0.649 | 1.06 | 1.06 | 1.12 | 1.09 | 1.14 | 0.394 | 1.03 | 1.12 | 1.05 | 1.01
3 | NCI-H460 |  | 0.952 | 1.01 | 1.07 | 1.09 | 0.147 | 0.092 | 0.11 | 0.121 | 0.131 | 0.635 | 0.469 | 0.602 | 0.583 | 0.516 | 0.36 | 0.535 | 0.506 | 0.359 | 0.338
